Results from patent US9701958B2, “Method for selecting polynucleotides encoding antigen-specific immunoglobulin subunits” (priority 2012, dated 2017).
Where two headings read alike, the source gives them in different places.

How the values were obtained:
VHE H5 HX-A56R NEO = type: cell-based, vaccinia virus
wild-type vaccinia virus = type: cell-based

Compound: CN[C@@H]1[C@@H](O)[C@@H](O[C@@H]2[C@@H](O)[C@H](O[C@H]3O[C@H]([C@@H](C)O)[C@@H](O)[C@H](O)[C@H]3N)[C@@H](N)C[C@H]2N)OC[C@]1(C)O [G418]
- inhibition of amplification of vaccinia virus expressing heavy chain linked to a neomycin resistance marker (VHE H5 HX-A56R NEO): no inhibition effect
- % Inhibition (VHE H5 HX-A56R NEO; G418 0.125 mg/ml): −26.7%
- Titer (VHE H5 HX-A56R NEO; G418 0.125 mg/ml): 2.88E+07
- % Inhibition (VHE H5 HX-A56R NEO; G418 0.25 mg/ml): −36.7%
- Titer (VHE H5 HX-A56R NEO; G418 0.25 mg/ml): 3.11E+07
- % Inhibition (VHE H5 HX-A56R NEO; G418 0.5 mg/ml): −50.0%
- Titer (VHE H5 HX-A56R NEO; G418 0.5 mg/ml): 3.41E+07
- % Inhibition (VHE H5 HX-A56R NEO; G418 1 mg/ml): −40.0%
- Titer (VHE H5 HX-A56R NEO; G418 1 mg/ml): 3.18E+07
- % Inhibition (VHE H5 HX-A56R NEO; G418 2 mg/ml): −33.3%
- Titer (VHE H5 HX-A56R NEO; G418 2 mg/ml): 3.03E+07
- inhibition of amplification of wild-type vaccinia virus (wild-type vaccinia virus; 0.125 to 2 mg/ml of G418, in words): significantly inhibited
- % Inhibition (wild-type vaccinia virus; G418 0.125 mg/ml): 60.8%
- Titer (wild-type vaccinia virus; G418 0.125 mg/ml): 1.58E+07
- % Inhibition (wild-type vaccinia virus; G418 0.25 mg/ml): 79.4%
- Titer (wild-type vaccinia virus; G418 0.25 mg/ml): 8.26E+06
- % Inhibition (wild-type vaccinia virus; G418 0.5 mg/ml): 93.7%
- Titer (wild-type vaccinia virus; G418 0.5 mg/ml): 2.54E+06
- % Inhibition (wild-type vaccinia virus; G418 1 mg/ml): 96.6%
- Titer (wild-type vaccinia virus; G418 1 mg/ml): 1.36E+06
- % Inhibition (wild-type vaccinia virus; G418 2 mg/ml): 99.6%
- Titer (wild-type vaccinia virus; G418 2 mg/ml): 1.59E+05
